Values of other authors in patent US7166608B2, “N-aroyl piperazine derivatives as orexin receptor antagonists” (SmithKline Beecham p.l.c., priority 2001, dated 2007).

Key:
freely-feeding rats = conditions: central administration, 4 hour time period
rat sleep/EEG = conditions: central administration at the onset of the normal sleep period

## orexin-A: peptide ligand (agonist) of the orexin receptors; human sequence given in the 1st table (EPLPDCCRQKTCSCRLYELLHGAGNHAAGILTLNH; Human orexin A)
freely-feeding rats
  increase in food intake over control rats receiving vehicle: approximately four-fold
Rat sleep/EEG
  effect on arousal and sleep: dose-related increase in arousal
